Source: US20220016092A1, “METHODS FOR TREATING SYMPTOMS AND DISORDERS ASSOCIATED WITH LYSOSOMAL STORAGE DISEASES” (GENZYME CORPORATION, priority 2019, published 2022)

Experiments:
[1] = test system: GM3 expression in C32 human melanoma cells; assay: GM3 fluorescent-linked immunosorbent assay (FLISA), C32 cells; type: cell-based; conditions: 48 hours
From the text: (§1) Inhibition of glucosylceramide synthase activity can be measured with one or more assays. A first assay is a microsomal assay that directly measures the conversion of ceramide to glucosylceramide by HPLC. Microsomes are a source of glucosylceramide synthase activity in the microsomal assay. A second assay is a cell based, phenotypic assay that monitors cell surface expression of the downstream lipid GM3 by antibody mediated immunofluorescence. Specific protocols are provided below.
(§2) This is a phenotypic assay that measures GM3 expression in B16 mouse melanoma or C32 human melanoma cells following treatment with test compounds. Cell surface GM3 expression is determined by antibody mediated fluorescence.
(§3) Compounds are diluted in media and plated in 384 well plates in DMSO. B16 and C32 cells are assayed at densities of 20,000 cells/ml and 62,500 cells/ml, respectively, per well. Each titration curve contains 10 points that are assayed in duplicate on each test run. The plates are incubated for 48 hours at 37° C., 5% CO2, and are then washed once with TBS. Anti-GM3 antibody is added to each well and the plates are then incubated for an additional one hour at room temperature. Plates are subsequently washed twice and incubated for an additional hour with the labeled secondary antibody. Following the final incubation, the plates are washed twice and the fluorescence at λex=D640/20 nm and λem=657 nm is detected on a fluorescent reader.
(§4) The results of the microsomal assays are expressed as “GCS IC50”, which represents the concentration of the compound causing 50% inhibition of glucosylceramide synthase activity. The results of the cell-based assays are expressed as “GM3 B16 IC50” or “GM3 C32 IC50” for the B16 assay and the C32 assay, respectively. These values represent the concentration of the compound causing 50% inhibition of GM3 expression on the cell surface.

[2] = test system: GM3 expression in B16 mouse melanoma cells; assay: GM3 fluorescent-linked immunosorbent assay (FLISA), B16 cells; type: cell-based; conditions: 48 hours
From the text: as §1, §2, §3, §4

[3] = test system: GL-3, lyso-GL-3, GL-1 and GM3; conditions: Fabry patients of the historical phase 3 trial (Eng et al. 2001), matched; after 156 weeks; cited from earlier work

Molecule: CC(C)(NC(=O)OC1CN2CCC1CC2)c1cccc(-c2ccc(F)cc2)c1 (stereo not drawn) [Compound 1, 1-azabicyclo[2.2.2]oct-3-yl[2-(4′-fluorobiphenyl-3-yl)propan-2-yl]carbamate]
- IC50 [1]: 0.0021 µM
- IC50 [2]: 0.0156 µM

Molecule: COCCOc1ccc(-c2ccc(C(C)(C)NC(=O)OC3CN4CCC3CC4)nc2)cc1 (stereo not drawn) [Compound 21, Quinuclidin-3-yl 2-(5-(4-(2-methoxyethoxy)phenyl)pyridin-2-yl)propan-2-ylcarbamate]
- IC50 [1]: 0.0111 µM
- IC50 [2]: 0.266 µM

Molecule: CC(C)(NC(=O)OC1CN2CCC1CC2)c1ccc(-c2ccc(CO)cc2)cc1 (stereo not drawn) [Compound 17, Quinuclidin-3-yl(2-(4′-(hydroxymethyl)-[1,1′-biphenyl]-4-yl)propan-2-yl)carbamate]
- IC50 [1]: 0.0216 µM
- IC50 [2]: 0.879 µM

Molecule: CC(C)(NC(=O)OC1CN2CCC1CC2)c1csc(-c2ccc(F)cc2)c1 (stereo not drawn) [Compound 10, Quinuclidin-3-yl 2-(5-(4-fluorophenyl)thiophen-3-yl)propan-2-ylcarbamate]
- IC50 [1]: 0.0022 µM
- IC50 [2]: 0.0213 µM

Molecule: O=C(NC1(c2ccc(-c3ccc(F)cc3)cc2)CC1)O[C@@H]1CN2CCC1CC2 [Compound 7, (S)-quinuclidin-3-yl 1-(4′-fluorobiphenyl-4-yl)cyclopropylcarbamate]
- IC50 [1]: 0.0004 µM
- IC50 [2]: 0.0081 µM

Molecule: COCCCOc1ccc(-c2ccc(C(C)(C)NC(=O)OC3CN4CCC3CC4)cc2)cc1 (stereo not drawn) [Compound 16, Quinuclidin-3-yl(2-(4′-(3-methoxypropoxy)-[1,1′-biphenyl]-4-yl)propan-2-yl)carbamate]
- IC50 [1]: 0.0016 µM
- IC50 [2]: 0.0666 µM

Molecule: COCCOc1ccc(-c2ccc(C(C)(C)NC(=O)O[C@@H]3CN4CCC3CC4)cc2)cc1 [Compound 3, (S)-quinuclidin-3-yl(2-(4′-(2-methoxyethoxy)-[1,1′-biphenyl]-4-yl)propan-2-yl)carbamate]
- IC50 [1]: 0.00131 µM
- IC50 [2]: 0.0437 µM

Molecule: CC(C)(NC(=O)O[C@@H]1CN2CCC1CC2)c1ccc(-c2ccccc2)cc1 [Compound 5, (S)-quinuclidin-3-yl 2-(biphenyl-4-yl)propan-2-ylcarbamate]
- IC50 [1]: 0.0003 µM
- IC50 [2]: 0.0193 µM

Molecule: CC(C)(NC(=O)OC1CN2CCC1CC2)c1cccc(-c2ccccc2)c1 (stereo not drawn) [Compound 4, 1-azabicyclo[2.2.2]oct-3-yl[2-(biphenyl-3-yl)propan-2-yl]carbamate]
- IC50 [1]: 0.0008 µM
- IC50 [2]: 0.0116 µM

Molecule: COCCCOc1ccc(-c2nc(C(C)(C)NC(=O)OC3CN4CCC3CC4)cs2)cc1 (stereo not drawn) [Compound 19, Quinuclidin-3-yl(2-(2-(4-(3-methoxypropoxy)phenyl)thiazol-4-yl)propan-2-yl)carbamate]
- IC50 [1]: 0.0426 µM
- IC50 [2]: 0.197 µM

Molecule: COc1ccc(-c2ccc(C3(NC(=O)OC4CN5CCC4CC5)CC3)cc2)cc1 (stereo not drawn) [Compound 9, 1-azabicyclo[2.2.2]oct-3-yl[1-(4′-methoxybiphenyl-4-yl)cyclopropyl]carbamate]
- IC50 [1]: 0.0004 µM
- IC50 [2]: 0.0168 µM

Molecule: COCCOc1ccc(-c2cccc(C(C)(C)NC(=O)OC3CN4CCC3CC4)c2)cc1 (stereo not drawn) [Compound 15, Quinuclidin-3-yl(2-(4′-(2-methoxyethoxy)-[1,1′-biphenyl]-3-yl)propan-2-yl)carbamate]
- IC50 [1]: 0.0049 µM
- IC50 [2]: 0.0295 µM

Molecule: CC(C)(NC(=O)OC1CN2CCC1CC2)c1ccc(-c2ccc(OCC#N)cc2)cc1 (stereo not drawn) [Compound 23]
- IC50 [1]: 0.0008 µM
- IC50 [2]: 0.0477 µM

Molecule: O=C(NC1(c2ccc(-c3ccc(F)cc3F)cc2)CC1)O[C@@H]1CN2CCC1CC2 [Compound 8, (S)-1-azabicyclo[2.2.2]oct-3-yl[1-(2′,4′-difluorobiphenyl-4-yl)cyclopropyl]carbamate]
- IC50 [1]: 0.0004 µM
- IC50 [2]: 0.0075 µM

Molecule: COCCOc1ccc(-c2ccc(C(C)(C)NC(=O)OC3CN4CCC3CC4)cc2)cc1 (stereo not drawn) [Compound 13, Quinuclidin-3-yl(2-(4′-(2-methoxyethoxy)-[1,1′-biphenyl]-4-yl)propan-2-yl)carbamate]
- IC50 [1]: 0.0007 µM
- IC50 [2]: 0.0386 µM

Molecule: COCCOc1ccc(-c2nc(C(C)(C)NC(=O)OC3CN4CCC3CC4)cs2)cc1 (stereo not drawn) [Compound 20, Quinuclidin-3-yl(2-(2-(4-(2-methoxyethoxy)phenyl)thiazol-4-yl)propan-2-yl)carbamate]
- IC50 [1]: 0.0198 µM
- IC50 [2]: 0.106 µM

Molecule: COCCOc1cccc(-c2ccc(C(C)(C)NC(=O)O[C@@H]3CN4CCC3CC4)cc2)c1 [Compound 14, (S)-quinuclidin-3-yl(2-(3′-(2-methoxyethoxy)-[1,1′-biphenyl]-4-yl)propan-2-yl)carbamate]
- IC50 [1]: 0.0053 µM
- IC50 [2]: 0.11 µM

Molecule: CC(C)(NC(=O)OC1CN2CCC1CC2)c1ccc(-c2ccc(OCCCC#N)cc2)cc1 (stereo not drawn) [Compound 22, Quinuclidin-3-yl(2-(4′-(3-cyanopropoxy)-[1,1′-biphenyl]-4-yl)propan-2-yl)carbamate]
- IC50 [1]: 0.0032 µM
- IC50 [2]: 0.0865 µM

Molecule: CC(C)(NC(=O)O[C@@H]1CN2CCC1CC2)c1nc(-c2ccc(F)cc2)cs1 [Compound 12, (S)-quinuclidin-3-yl 2-(4-(4-fluorophenyl)thiazol-2-yl)propan-2-ylcarbamate]
- IC50 [1]: 0.0037 µM
- IC50 [2]: 0.0878 µM

Molecule: CC(C)(NC(=O)O[C@@H]1CN2CCC1CC2)c1cc(-c2ccc(F)cc2)ns1 [Compound 11, (S)-quinuclidin-3-yl 2-(3-(4-fluorophenyl)isothiazol-5-yl)propan-2-ylcarbamate]
- IC50 [1]: 0.0018 µM
- IC50 [2]: 0.0819 µM

Molecule: CC(C)(NC(=O)OC1CN2CCC1CC2)c1ccc(-c2ccc(CCO)cc2)cc1 (stereo not drawn) [Compound 18, Quinuclidin-3-yl(2-(4′-(2-hydroxyethyl)-[1,1′-biphenyl]-4-yl)propan-2-yl)carbamate]
- IC50 [1]: 0.0223 µM
- IC50 [2]: 0.655 µM

Molecule: O=C(NC1(c2ccc(-c3ccccc3)cc2)CC1)OC1CN2CCC1CC2 (stereo not drawn) [Compound 6, Quinuclidin-3-yl 1-(biphenyl-4-yl)cyclopropylcarbamate]
- IC50 [1]: 0.0006 µM
- IC50 [2]: 0.0181 µM

B1: agalsidase beta: historical control arm: patients treated with agalsidase beta (Fabrazyme) in a previously completed placebo-controlled phase 3 trial (protein, UniProt P06280 32-429, looked up)
Alpha-galactosidase A: LDNGLARTPTMGWLHWERFMCNLDCQEEPDSCISEKLFMEMAELMVSEGWKDAGYEYLCIDDCWMAPQRDSEGRLQADPQRFPHGIRQLANYVHSKGLKLGIYADVGNKTCAGFPGSFGYYDIDAQTFADWGVDLLKFDGCYCDSLENLADGYKHMSLALNRTGRSIVYSCEWPLYMWPFQKPNYTEIRQYCNHWRNFADIDDSWKSIKSILDWTSFNQERIVDVAGPGGWNDPDMLVIGNFGLSWNQQVTQMALWAIMAAPLFMSNDLRHISPQAKALLQDKDVIAINQDPLGKQGYQLRQGDNFEVWERPLSGLAWAVAMINRQEIGGPRSYTIAVASLGKGVACNPACFITQLLPVKRKLGFYEWTSRLRSHINPTGTVLLQLENTMQMSLKDLL
modifications: agalsidase beta
notes: historical control arm: patients treated with agalsidase beta (Fabrazyme) in a previously completed placebo-controlled phase 3 trial
- Plasma GL-3 levels [3]: 4.44 µg/mL
